Reference: patent US9801901B2, “Alginate oligomers for use in overcoming multidrug resistance in bacteria” (priority 2009, dated 2017)
Converted amounts (≈) assume the structure as drawn. Like-named read-outs stand apart in the source and are kept apart here. Marks after values point to notes of the source that are not given here.

Tests used:
[1] = system: Burkholderia cepacia (1322, V23); assay: MIC-assay, Mueller-Hinton broth with G-block alginate, 384-well, OD600
[2] = system: Acinetobacter baumannii (MDR ACB, Libya, V4); assay: as above
[3] = system: V12 5725 (Wales) Klebsiella pneumoniae; assay: MIC assay, CAMHB with alginate oligomer, no visible growth; assay type: cell-based; settings: Table 5, V12 MDR Kleb pneu
[4] = system: Pseudomonas aeruginosa MDR R22 from China (V1); assay: as above; assay type: cell-based; settings: for MIC: Pseudomonas aeruginosa, Table 1, V1 MDR R22 PA, read-out: MIC
Description: The study described in Example 1 was repeated with the following strains of bacteria and antibiotics as detailed in Tables 4, 5 and 6.

[5] = system: V9 (Egypt) Acinetobacter baumannii; assay: as above; assay type: cell-based; settings: Table 5, V9 MDR Acin. baum
[6] = system: Pseudomonas aeruginosa ATCC 39324, mucoid type strain (R79); assay: as above; assay type: cell-based; settings: Pseudomonas aeruginosa, ATCC39324, Table 1, R79, read-out: MIC
[7] = system: Burkholderia cepacia (LMG18941, ATCC-BAA-246); assay: MIC-assay, Mueller-Hinton broth with G-block alginate, 384-well, OD600
[8] = system: strains of E. coli displaying MDR phenotypes; assay: MIC-assay, Mueller-Hinton broth with G-block alginate, 384-well, OD600 (Table 11); assay type: cell-based; settings: Escherichia coli, Escherichia coli (5702, Wales, V11) MDR, read-out: MIC
Description: Minimum inhibitory concentration (MICs) of different antibiotics for strains of E. coli and Providencia stuartii displaying MDR phenotypes in the presence of varying concentrations of OligoCF-5/20 (0-10%). (MIC values are expressed in μg ml^−1).

[9] = system: strains of Klebsiella pneumoniae displaying MDR phenotypes; assay: MIC-assay, Mueller-Hinton broth with G-block alginate, 384-well, OD600 (Table 10); assay type: cell-based; settings: read-out: MIC
Description: Minimum inhibitory concentration (MICs) of different antibiotics for strains of Klebsiella pneumoniae displaying MDR phenotypes in the presence of varying concentrations of OligoCF-5/20 (0-10%). (MIC values are expressed in μg ml^−1).

V22 6056 Acinetobacter = assay: MIC assay, CAMHB with alginate oligomer, no visible growth; assay type: cell-based, Acinetobacter lwoffii; settings: Table 5, V22 MDR Acin. lwoff
[10] = system: Pseudomonas aeruginosa MDR 301 from Poland (V2); assay: as above; assay type: cell-based; settings: Pseudomonas aeruginosa, Table 1, V2 MDR 301 PA, read-out: MIC
[11] = system: Staphylococcus aureus (MRSA) U50; assay: MIC-assay, Mueller-Hinton broth with G-block alginate, 384-well, OD600 (Table 12); assay type: cell-based; settings: MRSA 1040s, U50 MDR, read-out: MIC
Description: (§1) Minimum inhibitory concentration (MICs) of different antibiotics for strains of Streptococcus oralis and Staphylococcus aureus (MRSA) displaying MDR phenotypes in the presence of varying concentrations of OligoCF-5/20 (0-10%). (MIC values are expressed in μg ml^−1).

Streptococcus oralis = assay: as above; assay type: cell-based; settings: Streptococcus oralis (5610, V17) MDR
Description: as §1

[12] = system: Pseudomonas aeruginosa CFA 24-1, clinical mucoid strain (R80); assay: MIC assay, CAMHB with alginate oligomer, no visible growth; assay type: cell-based; settings: Pseudomonas aeruginosa, Table 1, R80, read-out: MIC
[13] = Klebsiella pneumoniae, OligoCF-5/20 0G, read-out: MIC
[14] = Acinetobacter, OligoCF-5/20 0G, read-out: MIC

O=C(O)c1cn(C2CC2)c2cc(N3CCNCC3)c(F)cc2c1=O [Ciprofloxacin]
MIC ([1]; Table 8, G-block (OligoCF-5/20) 0%): > 8 µg/mL
MIC ([1]; Table 8, G-block (OligoCF-5/20) 2%): > 8 µg/mL
MIC ([1]; Table 8, G-block (OligoCF-5/20) 6%): > 8 µg/mL
MIC ([1]; Table 8, G-block (OligoCF-5/20) 10%): > 8 µg/mL
MIC ([2]; Table 9, G-block (OligoCF-5/20) 0%): 4 µg/mL (≈ 12.1 µM)
MIC ([2]; Table 9, G-block (OligoCF-5/20) 2%): 1 µg/mL (≈ 3.02 µM)
MIC ([2]; Table 9, G-block (OligoCF-5/20) 6%): 1 µg/mL (≈ 3.02 µM)
MIC ([2]; Table 9, G-block (OligoCF-5/20) 10%): 0.5 µg/mL (≈ 1.51 µM)
MIC [3, 13]: 64 µg/mL (≈ 193 µM)
MIC ([3]; OligoCF-5/20 +2% G): 64 µg/mL (≈ 193 µM)
MIC ([3]; OligoCF-5/20 +6% G): 256^‡ μg/ml
MIC ([3]; OligoCF-5/20 +10% G): 256^‡ μg/ml
MIC ([4]; OligoCF-5/20 0G): 16 µg/mL (≈ 48.3 µM)
MIC ([4]; OligoCF-5/20 +2% G): 16 µg/mL (≈ 48.3 µM)
MIC ([4]; OligoCF-5/20 +6% G): 8 µg/mL (≈ 24.1 µM)
MIC ([4]; OligoCF-5/20 +10% G): 4 µg/mL (≈ 12.1 µM)
change of MIC in combination with azithromycin by alginate oligomer ([4]; Table 3, MDR R22 PA strain): reduced
MIC ([5]; OligoCF-5/20 0G): -64^† μg/ml
MIC ([5]; OligoCF-5/20 +2% G): 32^† μg/ml
MIC ([5]; OligoCF-5/20 +6% G): 32^† μg/ml
MIC ([5]; OligoCF-5/20 +10% G): 32^† μg/ml
MIC ([6]; OligoCF-5/20 +2% G): 0.0625 µg/mL (≈ 0.189 µM)
MIC ([6]; OligoCF-5/20 +6% G): 0.0312 µg/mL (≈ 0.0943 µM)
MIC ([6]; OligoCF-5/20 +10% G): 0.0312 µg/mL (≈ 0.0943 µM)
MIC ([7]; ATCCBAA246|LMG18941, Table 8, G-block (OligoCF-5/20) 0%): > 8 µg/mL
MIC ([7]; ATCCBAA246|LMG18941, Table 8, G-block (OligoCF-5/20) 2%): > 8 µg/mL
MIC ([7]; ATCCBAA246|LMG18941, Table 8, G-block (OligoCF-5/20) 6%): > 8 µg/mL
MIC ([7]; ATCCBAA246|LMG18941, Table 8, G-block (OligoCF-5/20) 10%): > 8 µg/mL
MIC ([8]; G-block (OligoCF-5/20) 0%): > 8 µg/mL
MIC ([8]; G-block (OligoCF-5/20) 2%): > 8 µg/mL
MIC ([8]; G-block (OligoCF-5/20) 6%): > 8 µg/mL
MIC ([8]; G-block (OligoCF-5/20) 10%): > 8 µg/mL
MIC ([9]; Klebsiella pneumoniae (5712, Wales, V12) MDR, G-block (OligoCF-5/20) 0%): > 8 µg/mL
MIC ([9]; Klebsiella pneumoniae (5712, Wales, V12) MDR, G-block (OligoCF-5/20) 2%): > 8 µg/mL
MIC ([9]; Klebsiella pneumoniae (5712, Wales, V12) MDR, G-block (OligoCF-5/20) 6%): > 8 µg/mL
MIC ([9]; Klebsiella pneumoniae (5712, Wales, V12) MDR, G-block (OligoCF-5/20) 10%): > 8 µg/mL
MIC ([9]; Klebsiella pneumoniae (IR25, India, V6) MDR, G-block (OligoCF-5/20) 2%): 64 µg/mL (≈ 193 µM)
MIC ([9]; Klebsiella pneumoniae (IR25, India, V6) MDR, G-block (OligoCF-5/20) 6%): 64 µg/mL (≈ 193 µM)
MIC ([9]; Klebsiella pneumoniae (IR25, India, V6) MDR, G-block (OligoCF-5/20) 10%): 64 µg/mL (≈ 193 µM)
MIC ([9]; Klebsiella pneumoniae (K3, India, V8) MDR, G-block (OligoCF-5/20) 0%): 32 µg/mL (≈ 96.6 µM)
MIC ([9]; Klebsiella pneumoniae (K3, India, V8) MDR, G-block (OligoCF-5/20) 2%): 32 µg/mL (≈ 96.6 µM)
MIC ([9]; Klebsiella pneumoniae (K3, India, V8) MDR, G-block (OligoCF-5/20) 6%): > 1020 µg/mL
MIC ([9]; Klebsiella pneumoniae (K3, India, V8) MDR, G-block (OligoCF-5/20) 10%): > 1020 µg/mL
MIC (V22 6056 Acinetobacter; [14]): < 0.25 µg/mL
MIC ([10]; OligoCF-5/20 0G): 16 µg/mL (≈ 48.3 µM)
MIC ([10]; OligoCF-5/20 +2% G): 16 µg/mL (≈ 48.3 µM)
MIC ([10]; OligoCF-5/20 +6% G): 8 µg/mL (≈ 24.1 µM)
MIC ([10]; OligoCF-5/20 +10% G): 8 µg/mL (≈ 24.1 µM)
MIC ([11]; G-block (OligoCF-5/20) 0%): 32 µg/mL (≈ 96.6 µM)
MIC ([11]; G-block (OligoCF-5/20) 2%): 32 µg/mL (≈ 96.6 µM)
MIC ([11]; G-block (OligoCF-5/20) 6%): > 1020 µg/mL
MIC ([11]; G-block (OligoCF-5/20) 10%): > 1020 µg/mL
MIC (Streptococcus oralis; G-block (OligoCF-5/20) 0%, read-out: MIC): 32 µg/mL (≈ 96.6 µM)
MIC (Streptococcus oralis; G-block (OligoCF-5/20) 2%): < 0.0625 µg/mL
MIC (Streptococcus oralis; G-block (OligoCF-5/20) 6%, read-out: MIC): 2 µg/mL (≈ 6.04 µM)
MIC (Streptococcus oralis; G-block (OligoCF-5/20) 10%, read-out: MIC): 2 µg/mL (≈ 6.04 µM)

C[C@@H](O)[C@H]1C(=O)N2C(C(=O)O)=C(S[C@@H]3CN[C@H](C(=O)N(C)C)C3)[C@H](C)[C@H]12 [Meropenem]
MIC ([12]; OligoCF-5/20 0G): < 1 µg/mL
MIC ([12]; OligoCF-5/20 +2% G): < 1 µg/mL
MIC ([12]; OligoCF-5/20 +6% G): < 1 µg/mL
MIC ([12]; OligoCF-5/20 +10% G): < 1 µg/mL
MIC [3, 13]: < 0.25 µg/mL
MIC ([3]; OligoCF-5/20 +2% G): <0.25 µg/mL
MIC ([3]; OligoCF-5/20 +6% G): <0.25 µg/mL
MIC ([3]; OligoCF-5/20 +10% G): <0.25 µg/mL
MIC ([4]; OligoCF-5/20 0G): 32 µg/mL (≈ 83.4 µM)
MIC ([4]; OligoCF-5/20 +2% G): 32 µg/mL (≈ 83.4 µM)
MIC ([4]; OligoCF-5/20 +6% G): 16 µg/mL (≈ 41.7 µM)
MIC ([4]; OligoCF-5/20 +10% G): 4 µg/mL (≈ 10.4 µM)
MIC ([5]; Acinetobacter baumannii, OligoCF-5/20 0G, read-out: MIC): 16 µg/mL (≈ 41.7 µM)
MIC ([5]; OligoCF-5/20 +2% G): 8^† μg/ml
MIC ([5]; OligoCF-5/20 +6% G): 8^† μg/ml
MIC ([5]; OligoCF-5/20 +10% G): 4^† μg/ml
MIC ([6]; OligoCF-5/20 0G): < 1 µg/mL
MIC ([6]; OligoCF-5/20 +2% G): < 1 µg/mL
MIC ([6]; OligoCF-5/20 +6% G): < 1 µg/mL
MIC ([6]; OligoCF-5/20 +10% G): < 1 µg/mL
MIC (V22 6056 Acinetobacter; [14]): 256 µg/mL (≈ 668 µM)
MIC (V22 6056 Acinetobacter; OligoCF-5/20 +10% G): 64^† μg/ml
MIC ([10]; OligoCF-5/20 0G): 64 µg/mL (≈ 167 µM)
MIC ([10]; OligoCF-5/20 +2% G): 64 µg/mL (≈ 167 µM)
